Data on one molecule can be found in PMC8472139, “Neuroprotective Effect of a Novel ATP-Synthase Inhibitor Bedaquiline in Cerebral Ischemia-Reperfusion Injury” (International Journal of Molecular Sciences, 2021).

The target of the test is T1, F1F0-ATP synthase (ATPase, complex V) (Rattus norvegicus, UniProt P05504+Q06645).
T1 construct: gene Atp5mc1; native complex from brain mitochondria (male Wistar rat), immunocaptured in microplate wells (Abcam ab109714 kit); mature c subunit is identical from Atp5mc1/Atp5mc2/Atp5mc3; with ATP synthase F(1) complex subunit alpha, mitochondrial; ATP synthase F(1) complex catalytic subunit beta, mitochondrial; ATP synthase F(1) complex subunit gamma, mitochondrial; ATP synthase F(1) complex subunit delta, mitochondrial; ATP synthase F(1) complex subunit epsilon, mitochondrial; ATP synthase peripheral stalk subunit OSCP, mitochondrial; ATP synthase peripheral stalk-membrane subunit b, mitochondrial
In words: ATP hydrolysis coupled to NADH oxidation, absorbance […] nm, immunocapture kit. It counts as biochemical.

For orientation: inhibition means the share of the control response that was lost under treatment.

`COc1nc2ccc(Br)cc2cc1[C@@H](c1ccccc1)[C@@](O)(CCN(C)C)c1cccc2ccccc12` [BDQ, Bedaquiline]: the inhibition at 5 µM is approximately 50%.
